Publication PMC3265452 (PLoS Neglected Tropical Diseases, 2012)
Where a name gives a salt, the structure may show the parent alone.

Target: AaDOP2 (Aedes aegypti, UniProt H6D5H2)
Experiment: AaDOP2 antagonist screen of the LOPAC1280 library (HEK-CRELuc-Aadop2 cells, luminescence)
Format: cell-based
Conditions: not given

Sequence of AaDOP2 (H6D5H2 1-476): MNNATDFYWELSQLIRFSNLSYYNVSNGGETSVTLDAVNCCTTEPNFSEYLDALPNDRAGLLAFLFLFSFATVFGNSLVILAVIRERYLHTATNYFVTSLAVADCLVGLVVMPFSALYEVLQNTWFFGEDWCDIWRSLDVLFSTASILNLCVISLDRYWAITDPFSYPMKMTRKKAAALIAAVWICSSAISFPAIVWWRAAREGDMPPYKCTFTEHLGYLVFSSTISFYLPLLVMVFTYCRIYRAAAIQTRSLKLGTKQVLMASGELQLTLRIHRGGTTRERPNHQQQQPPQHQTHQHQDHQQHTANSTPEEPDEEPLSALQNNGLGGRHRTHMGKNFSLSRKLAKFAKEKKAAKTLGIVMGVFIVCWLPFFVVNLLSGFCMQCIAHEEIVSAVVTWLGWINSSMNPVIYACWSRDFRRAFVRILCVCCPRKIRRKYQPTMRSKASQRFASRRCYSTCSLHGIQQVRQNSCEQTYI

Row | SMILES | Compound effect (percent receptor signaling in presence of test compound, relative lux units relative to the SCH23390 control)
1 | COc1cc(/C=C(\C#N)C(=O)c2ccc(O)c(O)c2)cc(I)c1O [Compound 1206, I-OMe-Tyrphostin AG 538] | 96
2 | N#C/C(=C\c1ccc(O)c(O)c1)C(=O)c1ccc(O)c(O)c1 [Compound 1207, Tyrphostin AG 538] | 75
3 | COc1cc(Cc2cnc(N)nc2N)cc(OC)c1OC [Compound 1208, Trimethoprim] | 92
4 | CNCC[C@@H](Oc1ccccc1C)c1ccccc1 [Compound 1209, Tomoxetine] | 79
5 | COC(=O)c1c(-c2cc(OC)c(OC)c(OC)c2)c2ccnc(OCc3ncccn3)c2c(=O)n1Cc1ccnc(C)c1 [Compound 1210, T-0156] | 56
6 | CN1[C@@H]2CC[C@H]1C[C@@H](OC(=O)c1cc(Cl)cc(Cl)c1)C2 [Compound 1211, 3-Tropanyl-3,5-dichlorobenzoate] | 97
7 | C/C=C(/C)C(=O)O[C@H]1C(C)=C2[C@H]([C@@H]1OC(=O)CCCCCCC)[C@@](C)(OC(C)=O)C[C@H](OC(=O)CCC)[C@@]1(O)[C@H]2OC(=O)[C@@]1(C)O [Compound 1215, Thapsigargin] | 103
8 | N#CC(C#N)=Cc1ccc([N+](=O)[O-])c(O)c1 [Compound 1216, Tyrphostin AG 126] | 100
9 | CC/C(=C(\c1ccccc1)c1ccc(OCCN(C)C)cc1)c1ccccc1 [Compound 1217, Tamoxifen citrate] | 87
10 | CC(C)(C)c1ccc(C(O)CCCN2CCC(C(O)(c3ccccc3)c3ccccc3)CC2)cc1 (stereo not drawn) [Compound 1218, Terfenadine] | 41
11 | Cl.O=c1[nH]oc2c1CCNC2 [Compound 1220, THIP hydrochloride] | 95
12 | O=C(CCCN1CCC(O)(c2cccc(C(F)(F)F)c2)CC1)c1ccc(F)cc1 [Compound 1221, Trifluperidol hydrochloride] | 68
13 | CN1[C@@H]2CC[C@H]1CC(OC(=O)c1c[nH]c3ccccc13)C2.Cl (stereo partly drawn) [Compound 1222, 3-Tropanyl-indole-3-carboxylate hydrochloride] | 89
14 | CCCCNc1c(C(=O)OCC)c(C)nc2c1cnn2CC [Compound 1223, Tracazolate] | 113
15 | C[N+]1(C)C2CCC1CC(OC(=O)c1c[nH]c3ccccc13)C2.[I-] (stereo not drawn) [Compound 1224, 3-Tropanylindole-3-carboxylate methiodide] | 91
16 | Cc1scc2c1N(C(=O)CN1CCN(C)CC1)c1ccccc1NC2=O [Compound 1225, Telenzepine dihydrochloride] | 77
17 | S=C(NC1CCCCC1)N1CCC(c2cnc[nH]2)CC1 [Compound 1226, Thioperamide maleate] | 90
18 | CC(C)(C)c1cc(C=C(C#N)C#N)cc(C(C)(C)C)c1O [Compound 1230, Tyrphostin A9] | 25
19 | CP(=O)(O)C1=CCNCC1 [Compound 1231, TPMPA] | 112
20 | CCCCC/C=C\C[C@@H](O)/C=C/c1cccc(C[C@@H](O)CCCCO)n1 [Compound 1232, U-75302] | 107
21 | O=c1ccn([C@@H]2O[C@H](COP(=O)([O-])OP(=O)([O-])[O-])[C@@H](O)[C@H]2O)c(=O)[nH]1.[Na+].[Na+].[Na+] [Compound 1233, Uridine 5'-diphosphate sodium] | 78
22 | C[C@]12C=CC(=O)C=C1CC[C@@H]1C2=CC[C@]2(C)[C@@H](C(=O)CN3CCN(c4cc(N5CCCC5)nc(N5CCCC5)n4)CC3)CC[C@@H]12.O=C(O)/C=C\C(=O)O [Compound 1234, U-74389G maleate] | 88

Row | SMILES | Compound effect (percent receptor signaling in presence of test compound, relative lux units relative to the SCH23390 control)
23 | Cc1c(C)c2c(c(C)c1O)CCC(C)(CN1CCN(c3cc(N4CCCC4)nc(N4CCCC4)n3)CC1)O2.Cl.Cl (stereo not drawn) [Compound 1235, U-83836 dihydrochloride] | 103
24 | COc1ccc2c(c1)CC[C@@H]1[C@@H]2CC[C@]2(C)[C@@H](NCCCCCCN3C(=O)C=CC3=O)CC[C@@H]12 [Compound 1236, U-73122] | 80
25 | O=C(O)C=Cc1c[nH]cn1 [Compound 1238, 4-Imidazoleacrylic acid] | 74
26 | COc1ccccc1N1CCN(CCCNc2cc(=O)n(C)c(=O)n2C)CC1 [Compound 1239, Urapidil hydrochloride] | 94
27 | COc1ccccc1N1CCN(CCCNc2c(C)c(=O)n(C)c(=O)n2C)CC1 [Compound 1240, Urapidil, 5-Methyl-] | 91
28 | Brc1c(NC2=NCCN2)ccc2nccnc12 [Compound 1242, UK 14,304] | 87
29 | CCCN(CCC)[C@H]1CCc2c(F)ccc(O)c2C1.Cl [Compound 1244, S(-)-UH-301 hydrochloride] | 90
30 | CCCN(CCC)[C@@H]1CCc2c(F)ccc(O)c2C1.Cl [Compound 1245, R(+)-UH-301 hydrochloride] | 97
31 | CCCN(CCC)C1Cc2cc(OC)c(OC)cc2C1.O=C(O)/C=C\C(=O)O [Compound 1249, U-99194A maleate] | 97
32 | N#CC(=C(/N)Sc1ccccc1N)/C(C#N)=C(/N)Sc1ccccc1N [Compound 1250, U0126] | 108
33 | CC[C@]1(O)C[C@@H]2CN(CCc3c([nH]c4ccccc34)[C@@](C(=O)OC)(c3cc4c(cc3OC)N(C)[C@H]3[C@@](O)(C(=O)OC)[C@H](OC(C)=O)[C@]5(CC)C=CCN6CC[C@]43[C@@H]65)C2)C1.O=S(=O)(O)O [Compound 1251, Vinblastine sulfate salt] | 118
34 | COc1ccccc1NC(=O)Nc1nc(-c2cccnc2)nc2ccccc12 [Compound 1253, VUF 5574] | 111
35 | CCOC(=O)C1=C[C@]2(CC)CCCN3CCc4c(n1c1ccccc41)[C@@H]32 [Compound 1254, Vinpocetine] | 148
36 | CC[C@]1(O)C[C@H]2CN(CCc3c([nH]c4ccccc34)[C@@](C(=O)OC)(c3cc4c(cc3OC)N(C=O)[C@H]3[C@@](O)(C(=O)OC)[C@H](OC(C)=O)[C@]5(CC)C=CCN6CC[C@]43[C@@H]65)C2)C1 [Compound 1257, Vincristine sulfate] | 98
37 | COc1cc2ncnc(Nc3ccc(O)cc3)c2cc1OC [Compound 1260, WHI-P131] | 90
38 | COC[C@H]1OC(=O)c2coc3c2[C@@]1(C)C1=C(C3=O)[C@@H]2CCC(=O)[C@@]2(C)C[C@H]1OC(C)=O [Compound 1261, Wortmannin from Penicillium funiculosum] | 42
39 | CC(N)=NCc1cccc(CN)c1.Cl.Cl [Compound 1262, 1400W dihydrochloride] | 96
40 | CS(=O)(=O)O.Cc1c(C(=O)c2cccc3ccccc23)c2cccc3c2n1[C@H](CN1CCOCC1)CO3 [Compound 1264, (R)-(+)-WIN 55,212-2 mesylate] | 58
41 | C#C[C@]1(O)CC[C@H]2[C@@H]3CCC4=Cc5nc6nc7ccccc7n6cc5C[C@]4(C)[C@H]3CC[C@@]21C [Compound 1265, WIN 62,577] | 59
42 | Cc1cccc(C)c1N=C1NCCCS1 [Compound 1269, Xylazine hydrochloride] | 134
43 | O=C(NCCNCC(O)COc1ccc(O)cc1)N1CCOCC1 (stereo not drawn) [Compound 1270, Xamoterol hemifumarate] | 112

Same assay, conditions: 10 µM compound, 300 nM dopamine, 2 hr; hit = compound effect <20

Row | SMILES | Compound effect (percent receptor signaling in presence of test compound, relative lux units relative to the SCH23390 control) [%]
44 | S=C([S-])OC1CC2CC1C1CCCC21.[K+] [Compound 1213, D-609 potassium] | 87
45 | CCN(CC)C(=O)N[C@H]1C[C@@H]2c3cccc4[nH]cc(c34)C[C@H]2N(C)C1 [Compound 1228, R(+)-Terguride] | 73
46 | N[C@@H](Cn1ccc(=O)[nH]c1=O)C(=O)O [Compound 1266, S(-)-Willardiine] | 99
47 | COc1ccccc1N1CCN(CCN(C(=O)C2CCCCC2)c2ccccn2)CC1.O=C(O)/C=C\C(=O)O [Compound 1267, WAY-100635 maleate] | 101
48 | N[C@@H](Cn1cc(I)c(=O)[nH]c1=O)C(=O)O [Compound 1268, S-5-Iodowillardiine] | 130
